As a reminder, the IC50 is the midpoint of a concentration-inhibition curve.

The values below come from US11161829B1, “Dihydrofuran chalcone compound and preparation method thereof” (SOUTH CHINA BOTANICAL GARDEN, CHINESE ACADEMY OF SCIENCES, priority 2018, dated 2021).

Series [1] in a line: DPPH radical scavenging assay. The following applies: 0.2 mM DPPH in ethanol, 30 minutes in dark at room temperature, absorbance at 517 nm; read-out: IC50 value against DPPH radicals. In kind it is biochemical. Here is the method: DPPH is a stable free radical. When a free radical scavenger is present, light absorption of DPPH will be reduced when the single electron is scavenged, which allows to evaluate free radical scavenging ability of the substance and accordingly determine antioxidant ability thereof. The DPPH radical scavenging ability of the dihydrofuran chalcone was measured through the DPPH radical scavenging assay, so as to evaluate the antioxidant ability of the compound. The assay comprised the following steps: 1,1-Diphenyl-2-picrylhydrazyl (DPPH) was dissolved in absolute ethanol to obtain a solution with a concentration of 0.2 mM. The dihydrofuran chalcone was dissolved in absolute ethanol. 80 μL of the ethanol solution of dihydrofuran chalcone and 160 μL of the 0.2 mM DPPH ethanol solution were mixed and the mixture was placed in dark at room temperature for 30 minutes. Then, light absorbance at 517 nm was measured using a microplate reader (SpectraMax 190, Molecular Devices, USA), and Vc was employed as a positive control.
(In general: Loss of DPPH colour is used to gauge radical scavenging.)

The nature of series [2]: Solubility in methanol (structure identification). In kind it is physicochemical.

Turning to `O=C1O[C@H]([C@@H](O)CO)C(O)=C1O` [Vc, vitamin C], the IC50 in series [1] was found to be 100 µM.
As for `CC(C)(O)C1Cc2c(O)ccc(C(=O)/C=C/c3ccc(O)cc3O)c2O1` (centres unmarked) [compound 1, dihydrofuran chalcone], in series [2], the solubility in methanol entry is “easily soluble”.
